Experimental data taken from PubChem BioAssay AID1259407 (Chemical Carcinogenesis Research Information System (CCRIS), 2018).
Activity calls are given as the source filed them. The rule behind the calls is not given here.

System: CCRIS mutagenicity, Ames/micronucleus/aberration tests
Experiment: CCRIS mutagenicity studies
[1] = Test System: AMES SALMONELLA TYPHIMURIUM, Strain/Indicator: TA98, Metabolic Activation: NONE, Method: STANDARD PLATE
[2] = Test System: AMES SALMONELLA TYPHIMURIUM, Strain/Indicator: TA100, Metabolic Activation: NONE, Method: STANDARD PLATE
[3] = Test System: AMES SALMONELLA TYPHIMURIUM, Strain/Indicator: TA1535, Metabolic Activation: NONE, Method: STANDARD PLATE
[4] = Test System: AMES SALMONELLA TYPHIMURIUM, Strain/Indicator: TA1537, Metabolic Activation: NONE, Method: STANDARD PLATE
[5] = Test System: AMES SALMONELLA TYPHIMURIUM, Strain/Indicator: TA1538, Metabolic Activation: NONE, Method: STANDARD PLATE
[6] = Test System: AMES SALMONELLA TYPHIMURIUM, Strain/Indicator: TA98, Metabolic Activation: RAT, LIVER, S-9, AROCLOR 1254, Method: STANDARD PLATE
[7] = Test System: AMES SALMONELLA TYPHIMURIUM, Strain/Indicator: TA100, Metabolic Activation: RAT, LIVER, S-9, AROCLOR 1254, Method: STANDARD PLATE
[8] = Test System: AMES SALMONELLA TYPHIMURIUM, Strain/Indicator: TA1535, Metabolic Activation: RAT, LIVER, S-9, AROCLOR 1254, Method: STANDARD PLATE
[9] = Test System: AMES SALMONELLA TYPHIMURIUM, Strain/Indicator: TA1537, Metabolic Activation: RAT, LIVER, S-9, AROCLOR 1254, Method: STANDARD PLATE

CCCCC(CC)COC(=O)COc1ccc(Cl)cc1Cl (configuration not stated)
mutagenic call [1]: inactive; negative | mutagenic call (Test System: AMES SALMONELLA TYPHIMURIUM, Strain/Indicator: TA98, Metabolic Activation: RAT LIVER S-9, AROCLOR 1254, 10%, Method: STANDARD PLATE): inactive; negative | mutagenic call [2]: inactive; negative | mutagenic call (Test System: AMES SALMONELLA TYPHIMURIUM, Strain/Indicator: TA100, Metabolic Activation: RAT LIVER S-9, AROCLOR 1254, 10%, Method: STANDARD PLATE): inactive; negative | mutagenic call [3]: inactive; negative | mutagenic call (Test System: AMES SALMONELLA TYPHIMURIUM, Strain/Indicator: TA1535, Metabolic Activation: RAT LIVER S-9, AROCLOR 1254, 10%, Method: STANDARD PLATE): inactive; negative | mutagenic call [4]: inactive; negative | mutagenic call (Test System: AMES SALMONELLA TYPHIMURIUM, Strain/Indicator: TA1537, Metabolic Activation: RAT LIVER S-9, AROCLOR 1254, 10%, Method: STANDARD PLATE): inactive; negative | mutagenic call [5]: inactive; negative | mutagenic call (Test System: AMES SALMONELLA TYPHIMURIUM, Strain/Indicator: TA1538, Metabolic Activation: RAT LIVER S-9, AROCLOR 1254, 10%, Method: STANDARD PLATE): inactive; negative | mutagenic call (Test System: UDS RAT HEPATOCYTES, Strain/Indicator: THYMIDINE INCORPORATION, Metabolic Activation: NONE, Method: AUTORADIOGRAPHY): inactive; negative

O=C1c2cccc3ccc4ccc5cccc1c5c4c23
mutagenic call [1]: inactive; negative | mutagenic call [2]: inactive; negative

O=C1c2c(ccc3ccccc23)-c2ccc3ccccc3c21
mutagenic call [1]: inactive; negative | mutagenic call [2]: inactive; negative

C=C(OC)[C@H](CSCC(Br)c1ccccc1)NC(=O)CC (some centres not stated)
mutagenic call (Test System: AMES SALMONELLA TYPHIMURIUM, Strain/Indicator: TA100, Metabolic Activation: NONE, Method: SPOT TEST): inactive; negative

O=[N+]([O-])c1ccc2c(ccc3c4ccccc4ccc23)c1
mutagenic call (Test System: AMES SALMONELLA TYPHIMURIUM, Strain/Indicator: TA98(1,8-DNP6), Metabolic Activation: NONE): active; positive | mutagenic call (Test System: AMES SALMONELLA TYPHIMURIUM, Strain/Indicator: TA98(1,8-DNP6), Metabolic Activation: RAT, LIVER, S-9, AROCLOR 1254): active; positive | mutagenic call (Test System: AMES SALMONELLA TYPHIMURIUM, Strain/Indicator: TA98(NR), Metabolic Activation: NONE): active; positive | mutagenic call (Test System: AMES SALMONELLA TYPHIMURIUM, Strain/Indicator: TA98(NR), Metabolic Activation: RAT, LIVER, S-9, AROCLOR 1254): active; positive | mutagenic call (Test System: AMES SALMONELLA TYPHIMURIUM, Strain/Indicator: TA98, Metabolic Activation: NONE): active; positive | mutagenic call (Test System: AMES SALMONELLA TYPHIMURIUM, Strain/Indicator: TA98, Metabolic Activation: RAT, LIVER, S-9, AROCLOR 1254): active; positive | mutagenic call (Test System: AMES SALMONELLA TYPHIMURIUM, Strain/Indicator: TA100(NR), Metabolic Activation: NONE): active; positive | mutagenic call (Test System: AMES SALMONELLA TYPHIMURIUM, Strain/Indicator: TA100(NR), Metabolic Activation: RAT, LIVER, S-9, AROCLOR 1254): active; positive | mutagenic call (Test System: AMES SALMONELLA TYPHIMURIUM, Strain/Indicator: TA100, Metabolic Activation: NONE): active; positive | mutagenic call (Test System: AMES SALMONELLA TYPHIMURIUM, Strain/Indicator: TA100, Metabolic Activation: RAT, LIVER, S-9, AROCLOR 1254): active; positive | mutagenic call (Test System: AMES SALMONELLA TYPHIMURIUM, Strain/Indicator: TA104, Metabolic Activation: NONE): active; positive | mutagenic call (Test System: AMES SALMONELLA TYPHIMURIUM, Strain/Indicator: TA104, Metabolic Activation: RAT, LIVER, S-9, AROCLOR 1254): active; positive

O=[N+]([O-])O[C@@H]1CO[C@H]2[C@@H]1OC[C@@H]2O
mutagenic call [1]: inactive; negative | mutagenic call [6]: inactive; negative | mutagenic call [2]: inactive; negative | mutagenic call [7]: inactive; negative | mutagenic call [3]: inactive; negative | mutagenic call [8]: inactive; negative | mutagenic call [4]: inactive; negative | mutagenic call [9]: inactive; negative

OC/C=C/c1ccccc1
mutagenic call (Test System: AMES SALMONELLA TYPHIMURIUM, Strain/Indicator: TA98, Metabolic Activation: HAMSTER, LIVER, S-9, AROCLOR 1254 (2.5-20%), Method: PREINCUBATION): inactive; negative | mutagenic call (Test System: AMES SALMONELLA TYPHIMURIUM, Strain/Indicator: TA98, Metabolic Activation: HAMSTER, LIVER, S-9, AROCLOR 1254, Method: STANDARD PLATE): inactive; negative | mutagenic call [1]: inactive; negative | mutagenic call [6]: inactive; negative | mutagenic call (Test System: AMES SALMONELLA TYPHIMURIUM, Strain/Indicator: TA100, Metabolic Activation: HAMSTER, LIVER, S-9, AROCLOR 1254 (2.5-20%), Method: PREINCUBATION): inactive; negative | mutagenic call (Test System: AMES SALMONELLA TYPHIMURIUM, Strain/Indicator: TA100, Metabolic Activation: HAMSTER, LIVER, S-9, AROCLOR 1254, Method: STANDARD PLATE): inactive; negative | mutagenic call [2]: inactive; negative | mutagenic call [7]: inactive; negative | mutagenic call (Test System: AMES SALMONELLA TYPHIMURIUM, Strain/Indicator: TA102, Metabolic Activation: HAMSTER, LIVER, S-9, AROCLOR 1254, Method: PREINCUBATION): inactive; negative | mutagenic call (Test System: AMES SALMONELLA TYPHIMURIUM, Strain/Indicator: TA102, Metabolic Activation: NONE, Method: PREINCUBATION): inactive; negative | mutagenic call (Test System: AMES SALMONELLA TYPHIMURIUM, Strain/Indicator: TA102, Metabolic Activation: RAT, LIVER, S-9, AROCLOR 1254, Method: PREINCUBATION): inactive; negative | mutagenic call (Test System: AMES SALMONELLA TYPHIMURIUM, Strain/Indicator: TA1535, Metabolic Activation: HAMSTER, LIVER, S-9, AROCLOR 1254, Method: STANDARD PLATE): inactive; negative | mutagenic call [3]: inactive; negative | mutagenic call [8]: inactive; negative | mutagenic call (Test System: AMES SALMONELLA TYPHIMURIUM, Strain/Indicator: TA1537, Metabolic Activation: HAMSTER, LIVER, S-9, AROCLOR 1254, Method: STANDARD PLATE): inactive; negative | mutagenic call (Test System: AMES SALMONELLA TYPHIMURIUM, Strain/Indicator: TA1537, Metabolic Activation: NONE, Method: PREINCUBATION): inactive; negative | mutagenic call [4]: inactive; negative | mutagenic call [9]: inactive; negative | mutagenic call (Test System: AMES SALMONELLA TYPHIMURIUM, Strain/Indicator: TA1538, Metabolic Activation: HAMSTER, LIVER, S-9, AROCLOR 1254, Method: STANDARD PLATE): inactive; negative | mutagenic call [5]: inactive; negative | mutagenic call (Test System: AMES SALMONELLA TYPHIMURIUM, Strain/Indicator: TA1538, Metabolic Activation: RAT, LIVER, S-9, AROCLOR 1254, Method: STANDARD PLATE): inactive; negative | mutagenic call (Test System: MOUSE LYMPHOMA, Strain/Indicator: L5178Y (TK+/TK-), Metabolic Activation: NONE, Method: SUSPENSION/PLATE): active; positive. reevaluation of results: inconclusive | mutagenic call (Test System: MOUSE LYMPHOMA, Strain/Indicator: L5178Y (TK+/TK-), Metabolic Activation: RAT, LIVER, S-9, AROCLOR 1254, Method: SUSPENSION/PLATE): active; positive. reevaluation of results: positive | mutagenic call (Test System: Mouse lymphoma, Strain/Indicator: L5178Y (tk+/tk-), Metabolic Activation: None, Method: Suspension/plate): inactive; negative | mutagenic call (Test System: Mouse lymphoma, Strain/Indicator: L5178Y (tk+/tk-), Metabolic Activation: Rat, Liver, S-9, Aroclor 1254, Method: Suspension/plate): inactive; negative

CC(=O)Nc1nnc(-c2ccc([N+](=O)[O-])o2)s1
mutagenic call (Test System: AMES SALMONELLA TYPHIMURIUM, Strain/Indicator: TA100, Metabolic Activation: RAT, LIVER, S-9, KC500 OR PHENOBARBITAL, Method: LIQUID SUSPENSION): active; positive
